Tests used:
Assay type in all cases: cell-based, mouse
AP-1 = test: CAT assay with stromelysin promoter reporter P750TRCAT (AP-1 dependent) in JB6 P+ Cl 41 cells; conditions: for inhibition of TPA-induced CAT activity: 8 hours
Source text: The plasmid constructs used in the following examples were as follows: P750TRCAT is a CAT reporter construct containing 750 bp of the rat stromelysin promoter driving the heterogolous gene chloramphenicol acetyl-transferase (CAT). This construct contains an AP-1 binding sequence at position −70 (Matrisian, L. M. et al. (1991) Am. J. Medic. Sci., 302: 157-162, Kerr, L. D. et al. (1988) Science., 242: 1424-1427, McDonnell, S. E. et al. (1990) Mol. Cell. Biol. 105 4284-4293). The mTRE-CAT reporter is a site-directed mutant with 2 point mutations in the AP-1 site (Matrisian, L. M. et al. (1991) Am. J. Medic. Sci., 302: 157-162) and the mPEA3-CAT reporter is a site-directed mutant in which point mutations in each of the PEA3 sites at position −208 to −200 and −191 to −199 of the stromelysin promoter were introduced using a protocol provided with the site-directed mutagenesis kit of Amersham Corp. (Arlington Heights, Ill.) and an oligonucleotide having SEQ ID NO.:1 GCAAGAAGCATTTCTTGG.
In brief, JB6 Cl 41 (P^+) cells transfected for 4-5 hours using a standard calcium phosphate transfection procedure (Sambrook, J. et al. (1989) “Molecular Cloning, A Laboratory Manual” Cold Spring Harbor Laboratory Press, Cold Spring Harbor, N.Y.) with 10 μg of one of three CAT reporter plasmid DNAs, P750TRCAT, mTRE-CAT or mPEA3-CAT and 10 μg of sheared genomic DNA isolated from Cl 41 cells were then changed to medium containing 2% fetal calf serum and twenty-four to forty-two hours later, were treated with either 0.1% of DMSO, 10 ng/ml of TPA or 10 ng/ml EGF for eight hours prior to preparation of total cell extracts. CAT enzyme activity was assayed using a diffusion-based CAT assay according to the protocol provided by the manufacturers (New England Nuclear, Del.). The results are expressed as the rate of accumulation of [^14C]-acetylated product relative to solvent controls (DMSO).
In order to determine whether TPA-induced CAT activity in JB6 P^+ cells is capable of being abolished, TPA induced CAT activity was measured in the presence of the known AP-1 inhibitors retinoic acid (RA) and fluocinolone acetonide (FA). In brief, JB6 P^+ Cl 41 cells were transfected with 10 μg of P750TRCAT and 10 μg of sheared genomic DNA from Cl 41 cells as in Example 1. 24-42 hours after transfection, cells were then exposed for 8 hours to either 0.1% DMSO, […] (TPA), 10^−7 M fluocinolone acetonide (FA) in the absence of 10 ng/ml TPA (FA7), 10^−9, 10^−8 and 10^−7 M FA in the presence of 10 ng/ml TPA (TFA9, TFA8, TFA7, respectively), 10^−5 M retinoic acid (RA) in the absence of 10 ng/ml TPA (RA5), or to 10^−7, 10^−6 and 10^−5 M RA in the presence of 10 ng/ml TPA (TRA7, TRA6, TRA5 respectively). Following the above treatments, total cell extracts were prepared and CAT enzyme activity was assayed as in Example 1. As before, the results are expressed as the rate of accumulation of ^14C-acetylated product relative to solvent controls.
In order to determine whether an overexpressed TAM67 protein could repress TPA-induced CAT activity in JB6 P^+ cells, eight TAM67 clonal transfectants (M1-M8) and three neo-only clonal transfectants (N1-N3) were transfected with 10 μg of P750TRCAT reporter plasmid using the standard calcium phosphate protocol described in. Example 1. Forty two hours after transfection with P750TRCAT, the cells were exposed to either 0.01% DMSO (closed bar, FIG. 5A), or 10 ng/ml TPA (crossed-hatched bar, FIG. 5A) or, to water (closed bar, FIG. 5B) or 10 ng/ml EGF (cross-hatched bar, FIG. 5B) for eight hours. Total cell extracts were then prepared from the treated cells and assayed for CAT activity as described in Example 1.

c-Jun = test: immunoprecipitation and densitometry of c-Jun protein in stable JB6 transfectants; conditions: 10 ng/ml, fifteen hours, TAM67 or Neo-only transfectants
Experimental: Three TAM67 clonal transfectants (M4, M3, M6) and one neo-only clonal transfectant (N1) were treated for fifteen hours with either 10 ng/ml TPA (T), 10 ng/ml EGF (E), or 0.1% DMSO (D) prior to metabolic labelling for two hours with 0.2 mCi/ml ^35S -methionine (Amersham, Rockford, Ill.) (Sun, Y. et al. (1993) Mol. Carcinogenesis, 8: 49-57). Cellular lysates were then collected and immunoprecipitations using polyclonal rabbit c-jun antibody (AB-1 antibody, Oncogene Science) were carried out overnite at 4° C. (Sun et al. (1993)). These immunoprecipitates were then analyzed by electrophoresis on 12.5% SDS polyacrylamide gels and these gels are shown in FIG. 4.

JB6 P+ Cl 41 cells = test: soft agar transformation assay, JB6 P+ Cl 41 cells; conditions: 3 ng/ml TPA, 14 days in 0.33% agar, FA 10^−9-10^−7 M, RA 10^−9-10^−6 M
Experimental: (§1) In order to test whether the same concentration ranges of inhibitors shown in FIGS. 2A and 2B to repress TPA-induced AP-1 activity could also block TPA-induced transformation, a soft agar transformation assay was carried out on JB6 P^+ Cl 41 (cross-hatched bar) or JB6 P^+ Cl 41.5a (closed bar) cells exposed in 0.33% agar for 14 days to 0.01% DMSO alone, 3 ng/ml TPA alone (TPA), 10^−7 or 10^−8 M FA alone (FA7 and FA8, respectively), 10^−6 M RA alone (RA6) 3 ng/ml TPA in the presence of 10^−7-10^−9 M FA (TFA7, TFA8, TFA9) or to 3 ng/ml TPA in 10^−6-10^−9 M retinoic acid (TRA6, TRA7, TRA8, TRA9). Treated cells were scored for colonies after 14 days in agar and transformation response was expressed as the number of soft agar colonies/10^4 suspended cells. […] In agreement with an earlier observation by De Benedetti et al. ((1991) Cancer Res., 51:1158-1164), the sensitivity of Cl 41.5a cells to antipromotion by RA appeared to be greater than that observed with the Cl 41 cells. More importantly, the concentration-dependent range of FA effective in blocking TPA-induced transformation appeared identical to that range which was active in blocking TPA-induced CAT activity by FA (10^−9 M to 10^−7 M FA, see TFA7, TFA8 and TFA9 in FIG. 2A). […]

JB6 P+ Cl 41.5a cells = test: soft agar transformation assay, JB6 P+ Cl 41.5a cells; conditions: 3 ng/ml TPA, 14 days in 0.33% agar, FA 10^−9-10^−7 M, RA 10^−9-10^−6 M
Experimental: as §1

## CC1=C(/C=C/C(C)=C/C=C/C(C)=C/C(=O)O)C(C)(C)CCC1 [RA, retinoic acid]
AP-1; 10^−7-10^−5 M RA with 10 ng/ml TPA, P750TRCAT
  inhibition of TPA-induced CAT activity: 90-100%

## CCCCCCCCCCCCCC(=O)O[C@@H]1[C@@H](C)[C@@]2(O)[C@@H](C=C(CO)C[C@]3(O)C(=O)C(C)=C[C@@H]23)[C@@H]2C(C)(C)[C@]12OC(C)=O [TPA, 12-O-tetradecanoyl phorbol 13-acetate]
AP-1; 10 ng/ml, eight hours, N1-N3 transfectants, P750TRCAT
  increase in AP-1 dependent CAT activity in neo-only transfectants: 3 to 4.5 fold
AP-1; 10 ng/ml, eight hours, P750TRCAT-transfected JB6 P+ Cl 41 cells
  CAT activity relative to uninduced cells, P750TRCAT reporter: about 2 fold
AP-1; 10 ng/ml, eight hours, mPEA3-CAT-transfected JB6 P+ Cl 41 cells (PEA3 sites mutated)
  CAT activity relative to uninduced cells, mPEA3-CAT reporter: about 2 fold
AP-1; 10 ng/ml, eight hours, mTRE-CAT-transfected cells (AP-1 binding site mutated)
  inducibility of CAT activity, mTRE-CAT reporter: loss of inducibility
c-Jun
  c-Jun protein levels (43 kDa band, densitometric analysis): no significant differences

## CC1(C)O[C@@H]2C[C@H]3[C@@H]4C[C@H](F)C5=CC(=O)C=C[C@]5(C)[C@@]4(F)[C@@H](O)C[C@]3(C)[C@]2(C(=O)CO)O1 [FA, Fluocinolone acetonide]
AP-1; 10^−9-10^−7 M FA with 10 ng/ml TPA, P750TRCAT
  inhibition of TPA-induced CAT activity: dose-dependent inhibition
JB6 P+ Cl 41 cells
  TPA-induced transformation (soft agar colonies/10^4 suspended cells): blocked TPA-induced transformation in a concentration-dependent manner
JB6 P+ Cl 41.5a cells
  TPA-induced transformation (soft agar colonies/10^4 suspended cells): blocked TPA-induced transformation in a concentration-dependent manner

— patent publication US6699842B1, “Dominant negative deletion mutants of C-jun and their use in the prevention and treatment of cancer” (The United States of America as represented by the …, priority 1994, dated 2004)
